This is an account of results in US6423702B1, “PROCESS FOR THE HYDROXYLATION OF AN ACYCLIC OR CYCLIC METHYLENE RADICAL IN THE ALLYLIC POSITION, PHARMACEUTICAL COMPOSITION CONTAINING HYDROXYCHOLESTEROL DERIVATIVES AND UTILIZATION OF SUCH COMPOSITIONS FOR THE PREPARATION OF DRUGS” (priority 1991, dated 2002).

Data set [1] concerns tumors induced by 7,12-di-methylbenz(α)anthracene. The note with it: female Sprague-Dawley rats; cited from earlier work.
The test system of data set [2] is glioblastomas in the rat cortex (C6 cells). Description: Glioblastomas induced in the brain with C6 cells, liposome treatment at the tumor site. The data set is classed as in vivo. The method, then:
The “in vivo” model proposed by Galli et al., (J. Neurooncology, 7, 299-304, 1989) has been adopted with a few modifications in the number of C6-type cells injected and in the age of the rats. Rats (Wistar male) aged 6 days are anesthetized and placed in a stereotaxic apparatus, the skin of the cranium is opened and the skull pierced at appropriate coordinates (4.5 AP, 3.0 ML, 2.0 mm DV with respect to the lambda, set 0) using a dental drill; 200×10^3 C6 in […] of PBS are then injected over 4 minutes and then the skin sutured. 72 hours later, the rats are operated on again and treated with liposomes containing the 7β-hydroxycholesteryl 3-esters. […]
The rats are sacrificed 8 days after the treatment by […] injection of pentobarbital, perfused with formalin (4%) and the withdrawn brain is post-fixed in formalin (4%) and then in isobutanol and included in paraffin. Sections with a thickness of 10 μm are prepared using a section cutter and, after removing paraffin in toluene, the glioblastomas are detected by staining with Cresyl Violet (0.1% in 0.1 M […] and 0.1 M sodium acetate) and subjected to an image analyzer (IBAS, KONTRON, SAMBA ALCATEL). […]
Quantitative analysis of the lesions thus observed requires the acquisition of images with sequences of echoes of spin having several echoes and recovery times. […]

Data set [3] concerns subcutaneous glioblastomas (C6 cells). Description: Subcutaneous tumors induced by inoculating with C6 cells, intratumoral liposome treatment. The data set is classed as in vivo, rat. As to conditions: 50 μl liposomes with 1 mg PC and 100 μg steroid injected into the tumors; photographed 48 hours afterwards. Here is the method: The C6 cells (passage 55-57) are injected subcutaneously at the shoulders at a charge of 10^6 cells/200 μl of […] in rats (26 g) aged 3 weeks according to Ledig et al., (Revue de l'Alcoolisme, 1986, 31, 1-11); when the tumors develop (2 weeks after inoculating with the C6 cells), 50 μl of a suspension of liposomes containing 1 mg of PC and 100 μg of cholesteryl oleate or 7β-OH-cholesteryl oleate are injected into the tumors. The animals are photographed 48 hours afterwards.

Data set [4] deals with reactional gliosis (reactive astrocytes). Description: Reactional gliosis after electrolytic lesion of the striatum (brain), GFAP detection. In kind it is in vivo, rat. As to conditions: rats aged 6 days; 2 μl liposomes with 20 μg PC and 2 μg sterol or oxysterol injected into the site of lesion. Here is the method:
(§1) PC and steroidal derivatives are dissolved in CHCL3/methanol [sic] (2/1 v/v), the solvent evaporated and 1 ml of KCL [sic] (0.15 M) added. The suspension is subjected to ultrasound in an ice bath (5×1 min with an interval of 30 sec, amplitude 18 μm), centrifuged 13,000 g for 20 min, the supernatant withdrawn and concentrated 5 times under nitrogen. BRAIN
Rats aged 6 days are anesthetized with an intraperitoneal injection of imalgene 500 (2 mg/10 g) and valium (0.05 ml/10 g) and then placed in a stereotaxic apparatus in order to be subjected to an electrolytic lesion at the level of the striatum. For this, a dental probe, insulated except at the point, is moved down to the level of the striatum according to the stereotaxic coordinates with respect to the lambda. At this level, a current of 2 mA is applied for 10 secs;
2 μl of a suspension of liposomes containing 20 μg of PC and 2 μg of various sterols or oxysterols are injected into the site of lesion.
(§2) GFAP, specific structural labeler of astrocytes, is detected on paraffin sections by the antibody/antiantibody system to GFAP coupled to the peroxidase.

Data set [5] concerns secondary reactional gliosis (reactive astrocytes). Description: Reactional gliosis after complete section of the spinal cord at T8, GFAP detection. The note with it: rats 250 g; 5 μl liposomes with 500 μg PC and 50 μg ester injected 0.5 mm downstream of the section. The data set is classed as in vivo, rat. The method, then:
as §1
After complete section of the spinal cord at the T8 level in rats weighing 250 g (Sprague, Dawley, EFFA, Credo), 5 μl of a suspension of liposomes containing 500 μg of PC and 50 μg of esters of 7β-OH-CH (C18:0 or C18:1) are injected at 0.5 mm downstream of the section.
as §2

Data set [6] deals with ascitic tumors, Krebs-II transplantable carcinoma. The note with it: injected intraperitoneally into mice carrying ascitic tumors; cited from earlier work.
A further data set relates to transformed astrocytes. As to conditions: cited from earlier work.
The subject of data set [7] is rat liver epithelial cells. As to conditions: cited from earlier work.
For data set [8], the system named is cultured heart cells from newborn rats. The note with it: cited from earlier work.
Data set [9] deals with rat fibroblasts originating from the heart. The note with it: cited from earlier work.
Data set [10] deals with lymphoma (mouse RDM4 and YAC-1). As to conditions: mouse RDM4 and YAC-1 lymphoma; cited from earlier work.
Data set [11] has as its system hepatocytes from newborn rats. The note with it: cited from earlier work.
The subject of data set [12] is HTC cells (rat liver tumoral cells). As to conditions: cited from earlier work.

For `CC(C)CC[C@@H](O)[C@@H](C)[C@H]1CC[C@H]2[C@@H]3[C@@H](O)C=C4C[C@@H](O)CC[C@]4(C)[C@H]3CC[C@]12C` [(22 R)-cholest-5-ene-3β,7β22-triol], the development of tumors result in data set [1] is reported as “effectively reduced”.

As for `CCCCCCCC/C=C\CCCCCCCC(=O)O[C@H]1CC[C@@]2(C)C(=C[C@H](O)[C@H]3[C@@H]4CC[C@H]([C@H](C)CCCC(C)C)[C@@]4(C)CC[C@@H]32)C1` [7β-OH-CH (C18:1), 7β-hydroxycholesteryl 3-oleate], the “size of the tumors (Cresyl Violet staining)” value in data set [2] (40 μg in PC/GM1 liposomes injected 72 hours after C6 inoculation, sacrifice 8 days after treatment) is reported as “significant reduction”. Moreover, the “monitoring of the tumor over time by NMR imagery” value in [2] (same glioblastoma induced in the cortex of a rat, during treatment) is recorded as “regression”. For the same compound, in [3], the “effect on the subcutaneous tumor” value is reported as “significant regression”. Moreover, the “reactional gliosis in the CNS” value in data set [4] was “high attenuation”. For the same compound, the “secondary reactional gliosis at the spinal cord lesion site” value in data set [5] was “reduces”.

As for `CC(C)CCC[C@@H](C)[C@H]1CC[C@H]2[C@@H]3[C@@H](OC(=O)CCC(=O)O)C=C4C[C@@H](OC(=O)CCC(=O)O)CC[C@]4(C)[C@H]3CC[C@]12C` [7β-hydroxycholesterol 3,7-bis(hemisuccinate)], in data set [6], the antitumoral activity result is reported as “antitumoral activity”.

For the compound `CC(C)CCC[C@@H](C)[C@H]1CC[C@H]2[C@@H]3[C@@H](O)C=C4C[C@@H](O)CC[C@]4(C)[C@H]3CC[C@]12C` [7β-hydroxycholesterol], the “metabolism to esters of fatty acids” value in the data set on transformed astrocytes was “metabolized”. Moreover, the “cytotoxic activity against cultured cells” value in data set [7], in data set [9], in data set [10] and in [12] was “cytotoxic activity” in each case. Also, the “effect on cells with weaker potential for division” value in [8] and in data set [11] was “not detrimentally affected” each time.

For `CC(C)CCC[C@@H](C)[C@H]1CC[C@H]2[C@@H]3CC=C4C[C@@H](O)CC[C@]4(C)[C@H]3CC[C@]12C` [CH, cholesterol], in data set [4], the “reactional gliosis in the CNS” value is “ineffective”.

For the compound `CCCCCCCC/C=C\CCCCCCCC(=O)O[C@H]1CC[C@@]2(C)C(=CC[C@H]3[C@@H]4CC[C@H]([C@H](C)CCCC(C)C)[C@@]4(C)CC[C@@H]32)C1` [CH (C18:1), cholesteryl oleate], the “effect on the subcutaneous tumor” value in data set [3] is reported as “practically no effect”.

`CCCCCCCCCCCCCCCC(=O)O[C@H]1CC[C@@]2(C)C(=CC[C@H]3[C@@H]4CC[C@H]([C@H](C)CCCC(C)C)[C@@]4(C)CC[C@@H]32)C1` [CH (C16:0), cholesteryl palmitate]: the “reactional gliosis in the CNS” value in data set [4] is “ineffective”.
